# From PubChem BioAssay (NCI)
#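 All cell lines were grown in 96-well plates and treated with compound for 48 hours. Definition used: TGI = concentration required for complete inhibition of growth.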 Where a SMILES comes first, the peptide text is derived from it. [ ]: non-standard residue; d: D form. pGlu = O=C1CC[CH](C(=O)O)N1; Thz = O=C(O)[CH]1CSCN1
# Legend:
# Assay in all cases: NCI anticancer screen, dose series, 48 h
# MDA-N = tested on: MDA-N
# SN12C renal = tested on: SN12C renal
# NCI-H460 lung = tested on: NCI-H460 lung
# HL-60(TB) leukemia = tested on: HL-60(TB) leukemia
# HT29 colon = tested on: HT29 colon
# ACHN renal = tested on: ACHN renal
# RPMI-8226 leukemia = tested on: RPMI-8226 leukemia
# OVCAR-4 ovarian = tested on: OVCAR-4 ovarian
# K-562 leukemia = tested on: K-562 leukemia
# SNB-75 CNS = tested on: SNB-75 CNS
SMILES,TGI (MDA-N) [µM],TGI (SN12C renal) [µM],TGI (NCI-H460 lung) [µM],TGI (HL-60(TB) leukemia) [µM],TGI (HT29 colon) [µM],TGI (ACHN renal) [µM],TGI (RPMI-8226 leukemia) [µM],TGI (OVCAR-4 ovarian) [µM],TGI (K-562 leukemia) [µM],TGI (SNB-75 CNS) [µM]
Cc1nc(OCc2ccccc2)c2ncn(CCO)c2n1,> 100,> 100,> 100,> 100,> 100,> 100,> 100,> 100,–,–
CCCCCCN(CCCCCC)CCC(=O)c1ccc2cc(Br)c3ccccc3c2c1,–,> 100,> 100,56.2,> 100,> 100,> 100,–,> 100,–
COC(=O)C(CNC(=O)/C=C/c1ccc(OC)c(OC)c1)NC(=O)/C=C/c1ccc(OC)c(OC)c1 (centres undefined),> 100,> 100,> 100,–,> 100,> 100,> 100,> 100,> 100,> 100
COc1ccc(/C=N\N(C)Cc2cccc3ccsc23)cc1,> 100,> 100,> 100,> 100,> 100,> 100,–,> 100,> 100,> 100
COC(=O)C(Cc1c[nH]c2ccccc12)NC(=O)C(Cc1cnc[nH]1)NC(=O)C1CCC(=O)N1C(=O)OCc1ccccc1 (centres undefined),> 100,–,> 100,> 100,> 100,> 100,> 100,–,> 100,> 100
Cc1ccc2c(c1)nc1n2C(c2c(F)cccc2F)SC1 (centres undefined),> 100,> 100,> 100,–,> 100,> 100,> 100,> 100,> 100,> 100
O=C(OC1=CCN(Br)C1=O)C1=C(O)C(=O)N(Br)C1,–,31,> 100,52.2,–,> 100,> 100,> 100,> 100,61.3
O=C1CCC(C(=O)N2CSCC2C(=O)O)N1 (centres undefined) ([pGlu]-[Thz]-OH; configuration not given here),> 100,> 100,> 100,> 100,> 100,> 100,> 100,–,> 100,> 100
O=S(=O)(O)c1ccc(N=Nc2ccccc2)cc1,> 100,> 100,> 100,> 100,> 100,> 100,> 100,> 100,> 100,–
Nn1c(CCCCCCCCc2nnc(-c3c(O)ccc4ccccc34)n2N)nnc1-c1c(O)ccc2ccccc12,> 100,> 100,> 100,> 100,> 100,> 100,> 100,> 100,–,> 100
O=c1[nH]c(Nc2ccc(Br)c(C(F)(F)F)c2)nc2nc[nH]c12,> 100,> 100,> 100,> 100,> 100,> 100,> 100,> 100,–,> 100
